# Measured values reported in patent publication US9662339B2, “Benzodioxane inhibitors of leukotriene production for combination therapy” (Boehringer Ingelheim International GmbH, priority 2012, dated 2017).
# What was measured:
# [1] = system: New Zealand white rabbit model of atherosclerosis; experiment: New Zealand white rabbit model of atherosclerosis, combination with simvastatin; type: in vivo
# Procedure: In Vivo Studies Materials and Method: Rabbit Atherosclerosis Study Methods
# The in-life portions of these studies were conducted at Covance Labs (Greenfield, Ind.). NZW rabbits were placed on a HF/HC diet manufactured by Research Diets Inc. (C30355) containing 0.25% cholesterol, 3% peanut oil, and 3% coconut oil for 3 weeks before randomization into treatment groups of 23 animals based on cholesterol levels and LTB4 production. Rabbits with cholesterol levels below 250 mg/dL at the start of treatment were removed from further analysis. The rabbits were fed 125 g of rabbit chow each day and both food consumption and body weights were measured throughout the study period. After 3 weeks the rabbits were either continued on this same diet for 10 weeks (control) or treated with Compound 200 in the same food formulation. Compound treated groups are group 1: compound 200 (3 mg/kg) and simvastatin (2.5 mg/kg); and group 2: compound 200 (15 mg/kg) and simvastatin (2.5 mg/kg). Another group of rabbits were treated with simvastatin alone at a dose of 2.5 mg/kg. During this time, plasma samples were taken for cholesterol, compound exposure, ALT and AST activity, and ex vivo LTB4 production at treatment week 0, 2, 4 and 10. Plasma samples for HDL and LDL levels were taken at week 2, 4 and 10. The animals were sacrificed after ten weeks of treatment, perfused with 10% formalin, and their descending aortas dissected out and placed in […] for transport to Boehringer Ingelheim Pharmaceuticals Inc. for processing. The aortas were pinned out onto the silicone surface inside a metal dish and stained with Sudan IV stain. Atherosclerosis development was determined by image analysis software after photographing the vessels. The percentage of the total vessel staining positive was determined
# The mean value of each parameter was calculated for each different treatment group and compared to the control value. A one way ANOVA was used to compare treatment groups to the control group using a Dunnett's test for multiplicity of measures using Excell Stat software. As a pre-planned measurement the mean value of compound 200 treatment groups were individually compared to the simvastatin alone group by a Student's T test. Statistical significance was considered at the p<0.05 level.
# [2] = system: apoE-/- mouse model of atherosclerosis; experiment: apoE-/- mouse model of atherosclerosis; type: in vivo
# human LTA4 hydrolase = human LTA4 hydrolase (Homo sapiens (Human), UniProt P09960); experiment: LTA4H Enzyme assay (cleavage of Arg-AMC, fluorescence); type: biochemical; settings: LTA4H Enzyme 1 nM, Arg-AMC substrate 50 μM, room temperature 1 h
# Chain of human LTA4 hydrolase (P09960 whole entry): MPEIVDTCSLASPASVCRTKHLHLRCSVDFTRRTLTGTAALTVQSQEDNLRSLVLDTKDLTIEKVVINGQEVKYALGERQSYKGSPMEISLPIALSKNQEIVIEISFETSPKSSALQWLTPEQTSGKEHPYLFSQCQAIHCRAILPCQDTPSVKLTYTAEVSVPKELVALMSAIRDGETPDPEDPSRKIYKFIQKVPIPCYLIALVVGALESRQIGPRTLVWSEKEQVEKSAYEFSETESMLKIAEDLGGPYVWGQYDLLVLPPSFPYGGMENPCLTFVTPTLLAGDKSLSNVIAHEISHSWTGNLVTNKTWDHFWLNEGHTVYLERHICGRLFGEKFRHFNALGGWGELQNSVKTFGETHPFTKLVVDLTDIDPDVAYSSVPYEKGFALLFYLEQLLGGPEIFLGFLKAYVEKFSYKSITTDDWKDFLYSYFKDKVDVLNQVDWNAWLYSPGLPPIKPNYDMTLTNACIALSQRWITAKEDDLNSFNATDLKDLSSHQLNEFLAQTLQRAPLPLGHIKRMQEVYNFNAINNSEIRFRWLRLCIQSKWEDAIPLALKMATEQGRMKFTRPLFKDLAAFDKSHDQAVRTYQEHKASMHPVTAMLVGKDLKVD
# Procedure: The compounds of the invention are assessed for the ability to interact with human LTA4 hydrolase in an enzymatic assay that measures the ability of the enzyme to cleave the peptide bond of arginyl-aminomethylcoumarin (Arg-AMC). LTA4H Enzyme (1 nM final), Arg-AMC substrate (50 μM final), and compound are combined in a reaction buffer (50 mM Tris-HCl (pH 7.5), 100 mM KCl, 0.5% bovine serum albumin) at room temperature for 1 h. The formation of product is assessed by measuring the fluorescence of aminomethylcoumarin product (excitation wavelength 380 nm/emission wavelength 460 nm).
# [3] = system: synthesis of LTB4 in human whole blood; experiment: LTB4 production inhibition assay in human whole blood (HWB); type: cell-based; settings: heparinized human whole blood, calcimycin 20 μM, 37° C.
# Procedure: The compounds of the invention are additionally tested in a human whole blood (HWB) assay to determine their ability to inhibit the synthesis of LTB4 in a cellular system. Compounds are combined with heparinized human whole blood and incubated for 15 minutes at 37° C. Calcimycin (20 μM final, prepared in phosphate-buffered saline, pH 7.4) is then added and the mixture is incubated for another 30 minutes at 37° C. The samples are centrifuged for 5 min at low speed (1500×g) and the plasma layer is removed. Plasma LTB4 concentrations are then measured using an antibody-based homogenous time-resolved fluorescence method (CisBio, Bedford, Mass.). In general, the preferred potency range (IC50) of compounds in the HWB assay is between 10 nM to 10 μM, the more preferred potency range is 10 nM to 1 μM, and the most preferred potency range is 10 nM to 100 nM.
# [4] = in combination with simvastatin, compared to the simvastatin treated group
SMILES,IC50 (human LTA4 hydrolase),other results
"O=C(O)C1CCN(Cc2ccc([C@H]3COc4ccccc4O3)cc2)CC1 [Example 200, (S)-1-[4-(2,3-dihydro-benzo[1,4]dioxin-2-yl)-benzyl]-piperidine-4-carboxylic acid]",–,"reduction in plaque area within the descending aorta in addition to the reduction due to statin treatment ([1]; in combination with simvastatin 2.5 mg/kg vs simvastatin alone, 10 weeks chow dosing, p<0.05): 35%; plaque area in the descending aorta of rabbits (FIG. 1) ([1]; in combination with simvastatin compared to simvastatin treatment alone): further reduces plaque area; effect on body weight [1, 4]: no significant effects; effect on plasma cholesterol [1, 4]: no significant effects; effect on triglycerides [1, 4]: no significant effects; plaque area in the descending aorta [2]: reduce plaque area"
"CC(=O)N1CCCN(Cc2ccc(C3COc4ccccc4O3)cc2)CC1 (stereo not shown) [Example 31, 1-{4-[4-(2,3-dihydro-1,4-benzodioxin-2-yl)benzyl]-1,4-diazepan-1-yl}ethanone]",1.54 nM,–
"c1cncc(CNCc2ccc(C3COc4ccccc4O3)cc2)c1 (stereo not shown) [Example 54, 1-[4-(2,3-dihydro-1,4-benzodioxin-2-yl)phenyl]-N-(pyridin-3-ylmethyl)methanamine]",5.93 nM,–
"c1ccc2c(c1)OCC(c1ccc(CNCC3CC3)cc1)O2 (stereo not shown) [Example 43, 1-cyclopropyl-N-[4-(2,3-dihydro-1,4-benzodioxin-2-yl)benzyl]methanamine]",4.42 nM,–
"O[C@@H]1CCN(Cc2ccc(C3COc4ccccc4O3)cc2)C1 (stereo partly drawn) [Example 34, (3R)-1-[4-(2,3-dihydro-1,4-benzodioxin-2-yl)benzyl]pyrrolidin-3-ol]",1.89 nM,–
"c1ccc2c(c1)OCC(c1ccc(CNC3CCCC3)cc1)O2 (stereo not shown) [Example 41, N-[4-(2,3-dihydro-1,4-benzodioxin-2-yl)benzyl]cyclopentanamine]",3.71 nM,–
"Cn1cnc(CNCc2ccc(C3COc4ccccc4O3)cc2)c1 (racemic) [Example 55, 1-[4-(2,3-dihydro-1,4-benzodioxin-2-yl)phenyl]-N-[(1-methyl-1H-imidazol-4-yl)methyl]methanamine]",3.63 nM,–
"COCC(=O)NC1CCN(Cc2ccc([C@H]3COc4cccnc4O3)cc2)CC1 [Example 252, N-{1-[(S)-4-(2,3-Dihydro-[1,4]dioxino[2,3-b]pyridin-3-yl)-benzyl]-piperidin-4-yl}-2-methoxy-acetamide]",–,IC50 [3]: 42 nM
"CC(C)(C)NCc1ccc(C2COc3ccccc3O2)cc1 (stereo not shown) [Example 23, N-[4-(2,3-dihydro-1,4-benzodioxin-2-yl)benzyl]-2-methylpropan-2-amine]",5.2 nM,–
"c1ccc2c(c1)OC[C@@H](c1ccc(CN3CCOCC3)cc1)O2 [Example 199, 4-[(R)-4-(2,3-dihydro-benzo[1,4]dioxin-2-yl)-benzyl]-morpholine]",40.1 nM,–
"OC1CCN(Cc2ccc([C@H]3COc4ccccc4O3)cc2)CC1 [Example 192, (S)-1-[4-(2,3-Dihydro-benzo[1,4]dioxin-2-yl)-benzyl]-piperidin-4-ol]",0.43 nM,–
"CNC(=O)C1CCN(Cc2ccc(C3COc4ccccc4O3)cc2)CC1 (racemic) [Example 25, 1-[4-(2,3-Dihydro-benzo[1,4]dioxin-2-yl)-benzyl]-piperidine-4-carboxylic acid methylamide]",0.76 nM,–
"CC(C)(O)C1CCN(Cc2ccc(C3COc4ccccc4O3)cc2)CC1 (stereo not shown) [Example 28, 2-{1-[4-(2,3-dihydro-1,4-benzodioxin-2-yl)benzyl]piperidin-4-yl}propan-2-ol]",3.4 nM,–
"c1ccc2c(c1)OCC(c1ccc(CN3CCCOCC3)cc1)O2 (stereo not shown) [Example 32, 4-[4-(2,3-dihydro-1,4-benzodioxin-2-yl)benzyl]-1,4-oxazepane]",1.8 nM,–
